# In US20140163012A1, “PYRIDO-/AZEPINO-BENZOFURAN AND PYRIDO-/AZEPINO-BENZOTHIOPHENE MCH-1 ANTAGONISTS, METHODS OF MAKING, AND USE THEREOF” (Albany Molecular Research, Inc., priority 2012, published 2014):
# Where a name gives a salt, the structure may show the parent alone.
# Biological target: human MCH-1 receptor (Homo sapiens, UniProt Q99705)
# Test: Binding assay for human melanin-concentrating hormone (MCH-1) receptor, radioligand displacement on CHO-K1 cell membranes
# Conditions: for inhibition at 1 µM: read-out: MCH1 % inhibition @ 1 uM
# Chain of human MCH-1 receptor (Q99705 whole entry): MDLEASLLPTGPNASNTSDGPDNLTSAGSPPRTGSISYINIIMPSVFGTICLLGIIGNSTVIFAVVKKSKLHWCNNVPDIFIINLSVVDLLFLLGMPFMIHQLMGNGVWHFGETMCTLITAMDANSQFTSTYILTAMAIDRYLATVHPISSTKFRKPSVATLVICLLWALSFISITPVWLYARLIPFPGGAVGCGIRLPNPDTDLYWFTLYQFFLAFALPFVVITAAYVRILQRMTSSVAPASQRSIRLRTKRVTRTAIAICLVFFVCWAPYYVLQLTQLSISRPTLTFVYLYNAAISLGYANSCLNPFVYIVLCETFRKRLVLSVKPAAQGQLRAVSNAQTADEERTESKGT
Structure (SMILES),Ki [nM],inhibition at 1 µM [%]
"O=C1CN(CCc2ccc(F)cn2)CCN1c1ccc2c3c(oc2c1)CCCNC3 [Example 83, 4-(2-(5-Fluoropyridin-2-yl)ethyl)-1-(2,3,4,5-tetrahydro-1H-benzofuro[3,2-c]azepin-8-yl)piperazin-2-one hydrochloride]",52,–
"CN1CCc2oc3cc(-n4ccc(OCc5ccc(C(F)(F)F)nc5)cc4=O)ccc3c2CC1 [Example 84, 1-(3-Methyl-2,3,4,5-tetrahydro-1H-benzofuro[2,3-d]azepin-8-yl)-4-((6-(trifluoromethyl)pyridin-3-yl)methoxy)pyridin-2(1H)-one hydrochloride]",29,–
"Cc1ccc(COc2ccn(-c3ccc4c5c(oc4c3)CCCN(C)C5)c(=O)c2)cn1 [Example 85, 1-(2-Methyl-2,3,4,5-tetrahydro-1H-benzofuro[3,2-c]azepin-8-yl)-4-((6-methylpyridin-3-yl)methoxy)pyridin-2(1H)-one hydrochloride]",116,–
"CN1CCCc2oc3cc(-n4ccc(OCc5ccc(C(F)(F)F)nc5)cc4=O)ccc3c2C1 [Example 86, 1-(2-Methyl-2,3,4,5-tetrahydro-1H-benzofuro[3,2-c]azepin-8-yl)-4-((6-(trifluoromethyl)pyridin-3-yl)methoxy)pyridin-2(1H)-one hydrochloride]",53,–
"O=C1CN(CCc2ccc(Cl)cc2)CCN1c1ccc2c3c(oc2c1)CCNC3 [Example 87, 4-(4-Chlorophenethyl)-1-(1,2,3,4-tetrahydrobenzofuro[3,2-c]pyridin-7-yl)piperazin-2-one hydrochloride]",58,–
"O=C1CN(CCc2ccc(Cl)cc2)CCN1c1ccc2c3c(oc2c1)CCCNC3 [Example 89, 4-(4-Chlorophenethyl)-1-(2,3,4,5-tetrahydro-1H-benzofuro[3,2-c]azepin-8-yl)piperazin-2-one hydrochloride]",17,–
"O=C1CN(CCc2ccc(Cl)cn2)CCN1c1ccc2c3c(oc2c1)CCCNC3 [Example 90, 4-(2-(5-Chloropyridin-2-yl)ethyl)-1-(2,3,4,5-tetrahydro-1H-benzofuro[3,2-c]azepin-8-yl)piperazin-2-one hydrochloride]",19,–
"O=c1cc(OCc2ccccc2)ccn1-c1ccc2c3c(oc2c1)CCN(CCF)C3 [Example 92, 4-(Benzyloxy)-1-(2-(2-fluoroethyl)-1,2,3,4-tetrahydrobenzofuro[3,2-c]pyridin-7-yl)pyridin-2(1H)-one hydrochloride]",25,–
"CN1CCCc2oc3cc(N4CCN(CCc5ccc(Cl)cc5)CC4=O)ccc3c2C1 [Example 93, 4-(4-Chlorophenethyl)-1-(2-methyl-2,3,4,5-tetrahydro-1H-benzofuro[3,2-c]azepin-8-yl)piperazin-2-one hydrochloride]",69,–
"CN1CCCc2oc3cc(N4CCN(CCc5ccc(Cl)cn5)CC4=O)ccc3c2C1 [Example 94, 4-(2-(5-Chloropyridin-2-yl)ethyl)-1-(2-methyl-2,3,4,5-tetrahydro-1H-benzofuro[3,2-c]azepin-8-yl)piperazin-2-one hydrochloride]",103,–
"CN1CCCc2oc3cc(N4CCN(CCc5ccc(F)cn5)CC4=O)ccc3c2C1 [Example 95, 4-(2-(5-Fluoropyridin-2-yl)ethyl)-1-(2-methyl-2,3,4,5-tetrahydro-1H-benzofuro[3,2-c]azepin-8-yl)piperazin-2-one hydrochloride]",–,62
"CC(C)N1CCCc2oc3cc(N4CCN(CCc5ccc(Cl)cc5)CC4=O)ccc3c2C1 [Example 96, 4-(4-Chlorophenethyl)-1-(2-isopropyl-2,3,4,5-tetrahydro-1H-benzofuro[3,2-c]azepin-8-yl)piperazin-2-one hydrochloride]",150,–
"CC(C)N1CCCc2oc3cc(N4CCN(CCc5ccc(Cl)cn5)CC4=O)ccc3c2C1 [Example 97, 4-(2-(5-Chloropyridin-2-yl)ethyl)-1-(2-isopropyl-2,3,4,5-tetrahydro-1H-benzofuro[3,2-c]azepin-8-yl)piperazin-2-one hydrochloride]",–,66
"O=C1CN(CCc2ccc(Cl)cn2)CCN1c1ccc2c3c(oc2c1)CCNCC3 [Example 98, 4-(2-(5-Chloropyridin-2-yl)ethyl)-1-(2,3,4,5-tetrahydro-1H-benzofuro[2,3-d]azepin-8-yl)piperazin-2-one hydrochloride]",153,–
"O=C1CN(CCc2ccc(Cl)cc2)CCN1c1ccc2c3c(oc2c1)CCNCC3 [Example 99, 4-(4-Chlorophenethyl)-1-(2,3,4,5-tetrahydro-1H-benzofuro[2,3-d]azepin-8-yl)piperazin-2-one hydrochloride]",98,–
"O=c1cc(CCc2ccc(F)cn2)ccn1-c1ccc2c3c(oc2c1)CCCNC3 [Example 100, 4-(2-(5-Fluoropyridin-2-yl)ethyl)-1-(2,3,4,5-tetrahydro-1H-benzofuro[3,2-c]azepin-8-yl)pyridin-2(1H)-one hydrochloride]",8.1,–
"O=c1nc(CCc2ccc(Cl)cn2)ccn1-c1ccc2c3c(oc2c1)CCCNC3 [Example 103, 4-(2-(5-Chloropyridin-2-yl)ethyl)-1-(2,3,4,5-tetrahydro-1H-benzofuro[3,2-c]azepin-8-yl)pyrimidin-2(1H)-one hydrochloride]",8,–

Structure (SMILES),Ki [nM],inhibition at 1 µM [%]
"O=c1cc(-c2ccc(C(F)(F)F)nn2)ccn1-c1ccc2c3c(oc2c1)CCCNC3 [Example 106, 1-(2,3,4,5-Tetrahydro-1H-benzofuro[3,2-c]azepin-8-yl)-4-(6-(trifluoromethyl)pyridazin-3-yl)pyridin-2(1H)-one hydrochloride]",199,–
"O=c1cc(CCc2ccc(Cl)cn2)ccn1-c1ccc2c3c(oc2c1)CCCNC3 [Example 107, 4-(2-(5-Chloropyridin-2-yl)ethyl)-1-(2,3,4,5-tetrahydro-1H-benzofuro[3,2-c]azepin-8-yl)pyridin-2(1H)-one hydrochloride]",4.2,–
"O=c1cc(CCc2ccccc2)ccn1-c1ccc2c3c(oc2c1)CCCNC3 [Example 108, 4-Phenethyl-1-(2,3,4,5-tetrahydro-1H-benzofuro[3,2-c]azepin-8-yl)pyridin-2(1H)-one hydrochloride]",3.2,–
"O=c1cc(OCc2ccc(F)cn2)ccn1-c1ccc2oc3c(c2c1)CCCNC3 [Example 109, 4-((5-Fluoropyridin-2-yl)methoxy)-1-(2,3,4,5-tetrahydro-1H-benzofuro[2,3-c]azepin-7-yl)pyridin-2(1H)-one hydrochloride]",–,12
"O=c1cc(OCc2ccccc2)ccn1-c1ccc2oc3c(c2c1)CCCNC3 [Example 110, 4-(Benzyloxy)-1-(2,3,4,5-tetrahydro-1H-benzofuro[2,3-c]azepin-7-yl)pyridin-2(1H)-one hydrochloride]",–,12
"O=c1cc(OCc2ccc(C(F)(F)F)cn2)ccn1-c1ccc2c3c(oc2c1)CCNC3 [Example 115, 1-(1,2,3,4-Tetrahydrobenzofuro[3,2-c]pyridin-7-yl)-4-((5-(trifluoromethyl)pyridin-2-yl)methoxy)pyridin-2(1H)-one hydrochloride]",13,–
"O=c1cc(OCc2ccccc2)ccn1-c1ccc2sc3c(c2c1)CCCNC3 [Example 116, 4-(Benzyloxy)-1-(2,3,4,5-tetrahydro-1H-benzo[4,5]thieno[2,3-c]azepin-7-yl)pyridin-2(1H)-one hydrochloride]",–,37
"O=c1cc(OCc2ccccc2)ccn1-c1ccc2sc3c(c2c1)CCNCC3 [Example 117, 4-(Benzyloxy)-1-(2,3,4,5-tetrahydro-1H-benzo[4,5]thieno[2,3-d]azepin-9-yl)pyridin-2(1H)-one hydrochloride]",103,–
"O=C1CN(CCc2ccc(Cl)cn2)CCN1c1ccc2c3c(sc2c1)CNCC3 [Example 121, 4-(2-(5-Chloropyridin-2-yl)ethyl)-1-(1,2,3,4-tetrahydrobenzothieno[2,3-c]pyridin-7-yl)piperazin-2-one hydrochloride]",44,–
"O=c1cc(OCc2ccccc2)ccn1-c1ccc2c3c(sc2c1)CCCNC3 [Example 122, 4-(Benzyloxy)-1-(2,3,4,5-tetrahydro-1H-benzothieno[3,2-c]azepin-8-yl)pyridin-2(1H)-one hydrochloride]",3.3,–
"O=c1cc(OCc2ccc(Cl)cn2)ccn1-c1ccc2c3c(sc2c1)CCCNC3 [Example 123, 4-((5-Chloropyridin-2-yl)methoxy)-1-(2,3,4,5-tetrahydro-1H-benzothieno[3,2-c]azepin-8-yl)pyridin-2(1H)-one hydrochloride]",2.9,–
"O=c1cc(OCc2ccc(F)cn2)ccn1-c1ccc2c3c(sc2c1)CCCNC3 [Example 124, 4-((5-Fluoropyridin-2-yl)methoxy)-1-(2,3,4,5-tetrahydro-1H-benzothieno[3,2-c]azepin-8-yl)pyridin-2(1H)-one hydrochloride]",3.7,–
"O=c1cc(CCc2ccc(Cl)cn2)ccn1-c1ccc2c3c(sc2c1)CNCC3 [Example 125, 4-((5-Chloropyridin-2-yl)ethyl)-1-(1,2,3,4-tetrahydrobenzothieno[2,3-c]pyridin-7-yl)pyridin-2(1H)-one hydrochloride]",10,–
"O=c1cc(CCc2ccc(F)cn2)ccn1-c1ccc2c3c(sc2c1)CNCC3 [Example 126, 4-((5-Fluoropyridin-2-yl)ethyl)-1-(1,2,3,4-tetrahydrobenzothieno[2,3-c]pyridin-7-yl)pyridin-2(1H)-one hydrochloride]",20,–
"O=c1cc(CCc2ccccc2)ccn1-c1ccc2c3c(sc2c1)CNCC3 [Example 127, 4-Phenethyl-1-(1,2,3,4-tetrahydrobenzothieno[2,3-c]pyridin-7-yl)pyridin-2(1H)-one hydrochloride]",6.2,–
"O=c1cc(OCc2ccccc2)ccn1-c1ccc2c3c(oc2c1)CC1CCC3N1 (stereo not shown) [Example 128, 4-(Benzyloxy)-1-(7,8,9,10-tetrahydro-6H-7,10-epiminocyclohepta[b]benzofuran-3-yl)pyridin-2(1H)-one hydrochloride]",11,–
"O=c1cc(OCc2ccc(F)cn2)ccn1-c1ccc2c3c(oc2c1)CC1CCC3N1 (stereo not shown) [Example 129, 4-((5-Fluoropyridin-2-yl)methoxy)-1-(7,8,9,10-tetrahydro-6H-7,10-epiminocyclohepta[b]benzofuran-3-yl)pyridin-2(1H)-one hydrochloride]",14,–
